pIC50: −log10 of the molar value. A value given as a limit tells only on which side of the number the result lay.

For the assay, the system named is Plasmodium berghei. Kind of assay: Luciferase/luciferin-expressing antifolate-resistant parasites were used to infect a culture of HepG2 cells that were pre-incubated with compounds. Infected hepatocytes emit light due to the luciferase reaction. Assay results are presented as the percent inhibition of light emission compared to control. […]. Type of assay: functional. Conditions: sporozoite; for IC90: read-out: LUCIFERASE INFECTION ASSAY - IC90.

For `CN(C)CCNc1nc2sc3c(c2c(=O)n1-c1ccccc1)CCCCC3`, the IC90 is more than 8.63 µM. Moreover, the pIC50 (PBLUC_HILL_SLOPE 1.45, PBLUC_R_SQUARED 0.611, read-out: LUCIFERASE INFECTION ASSAY - IC50) was 5.08.
Take `COc1cc(C(=O)Nc2cccc(-n3cnnn3)c2)cc(OC)c1OC`: the IC90 was more than 9.29 µM. Also, the pIC50 (PBLUC_HILL_SLOPE 1.51, PBLUC_R_SQUARED 0.135, read-out: LUCIFERASE INFECTION ASSAY - IC50) is 5.30.
Take `CC(C)c1ccc(NC(=O)Nc2nc(C(N)COCc3ccccc3)cs2)cc1` (configuration not stated): the 90% effect concentration (IC90) was more than 8.04 µM. Further, where the note is “PBLUC_HILL_SLOPE 1.46, PBLUC_R_SQUARED 0.665, read-out: LUCIFERASE INFECTION ASSAY - IC50”, the pIC50 was 5.31.
Turning to `O=C(Cn1cc(C(=O)c2ccccc2)c2ccccc21)Nc1ccc(F)cc1`, the IC90 is more than 8.86 µM. Also, for the setting “PBLUC_HILL_SLOPE 1.46, PBLUC_R_SQUARED 0.555, read-out: LUCIFERASE INFECTION ASSAY - IC50”, the negative-log IC50 (pIC50) was 5.48.
With `CCCN1CCc2nc(NCc3cccc(Oc4ccccc4)c3)ncc2C1`, the IC90 is more than 8.81 µM. The negative-log IC50 (pIC50) (PBLUC_HILL_SLOPE 1.46, PBLUC_R_SQUARED 0.3, read-out: LUCIFERASE INFECTION ASSAY - IC50) is 5.41.
`COc1ccc(S(=O)(=O)N(Cc2ccc(C(=O)NC3CC3)cc2)C2CC2)cc1OC`: the 90% effect concentration (IC90) came to 7.7 µM. For the same compound, the pIC50 (PBLUC_HILL_SLOPE 1.44, PBLUC_R_SQUARED 0.778, read-out: LUCIFERASE INFECTION ASSAY - IC50) is 5.77.
With `Fc1ccc(Nc2nccc3c2ncn3Cc2ccccc2)cc1Cl`, the IC90 was more than 10 µM. For the same compound, the pIC50 (PBLUC_HILL_SLOPE 1.48, PBLUC_R_SQUARED 0.272, read-out: LUCIFERASE INFECTION ASSAY - IC50) was 5.44.
Regarding `CSC(=NNc1ccc([N+](=O)[O-])cc1)NC(=O)c1c(Cl)cccc1Cl`, the IC90 is more than 8.27 µM. The pIC50 (PBLUC_HILL_SLOPE 1.5, PBLUC_R_SQUARED 0.194, read-out: LUCIFERASE INFECTION ASSAY - IC50) is 5.10.
Consider `O=C(/C=C/c1ccccc1)Nc1ccc(C23CC4CC(CC(O)(C4)C2)C3)cc1`, for which the IC90 was 9.39 µM. The pIC50 (PBLUC_HILL_SLOPE 1.46, PBLUC_R_SQUARED 0.646, read-out: LUCIFERASE INFECTION ASSAY - IC50) is 5.68.
Regarding `CC(C)c1ccc(C2C3CCc4ccccc4C3=NN2CCO)cc1` (configuration not stated), the 90% effect concentration (IC90) came to 1.32 µM. Further, the pIC50 (PBLUC_HILL_SLOPE 1.49, PBLUC_R_SQUARED 0.685, read-out: LUCIFERASE INFECTION ASSAY - IC50) was 6.52.
Turning to `CC1(C)CS/C(=N\Cc2ccccc2)N1C(=O)C(c1ccccc1)c1ccccc1`, the IC90 was more than 10 µM. In addition, the pIC50 (PBLUC_HILL_SLOPE 1.51, PBLUC_R_SQUARED 0.0539, read-out: LUCIFERASE INFECTION ASSAY - IC50) is less than 5.00.
For `CNC(=O)c1nn(CC2CCCCC2)c2c1CC(NC1CCCC1)CC2` (configuration not stated), the IC90 was more than 9.2 µM. Moreover, the pIC50 (PBLUC_HILL_SLOPE 1.5, PBLUC_R_SQUARED 0.479, read-out: LUCIFERASE INFECTION ASSAY - IC50) is 5.36.
For `O=C(Nc1ccc(OC(F)(F)F)cc1)c1ccc(=O)n(Cc2ccc(Cl)cc2)c1`, the IC90 was more than 7.81 µM. For the setting “PBLUC_HILL_SLOPE 1.46, PBLUC_R_SQUARED 0.0131, read-out: LUCIFERASE INFECTION ASSAY - IC50”, the pIC50 is 5.13.
As for `CNC(=O)c1ccc2n1CCN(C(=O)OCc1ccccc1)C2C` (configuration not stated), the IC90 is more than 10 µM. Besides, where the note is “PBLUC_HILL_SLOPE 1.5, PBLUC_R_SQUARED 0.67, read-out: LUCIFERASE INFECTION ASSAY - IC50”, the pIC50 was 5.50.
`CCCCCCCCSC(=S)c1c(C)[nH]n(-c2ccccc2)c1=O`: the IC90 was more than 9.1 µM. Besides, the pIC50 (PBLUC_HILL_SLOPE 1.5, PBLUC_R_SQUARED 0.801, read-out: LUCIFERASE INFECTION ASSAY - IC50) is less than 5.04.
Consider `Cc1occc1C(=O)Nc1ccc(Cl)c(C(F)(F)F)c1`, for which the IC90 is more than 10 µM. Besides, the pIC50 (PBLUC_HILL_SLOPE 1.47, PBLUC_R_SQUARED 0.656, read-out: LUCIFERASE INFECTION ASSAY - IC50) is 5.19.
In the case of `O/N=C1/c2ccccc2-c2nnc(-c3cccc(OC(F)(F)F)c3)cc21`, the concentration for an effect of 90% (IC90) is 1.49 µM. Under “PBLUC_HILL_SLOPE 1.48, PBLUC_R_SQUARED 0.765, read-out: LUCIFERASE INFECTION ASSAY - IC50”, the pIC50 was 6.47.
`FC(F)(F)c1c(-c2nc(-c3ccc(Cl)cc3)no2)cnn1-c1ccccc1`: the IC90 came out at 1.19 µM. For the same compound, the pIC50 (PBLUC_HILL_SLOPE 1.45, PBLUC_R_SQUARED 0.734, read-out: LUCIFERASE INFECTION ASSAY - IC50) is 6.58.
`O=C(NCc1ccc(Cl)cc1Cl)/C(=C/c1cccs1)n1nnnc1-c1ccccc1`: the IC90 was more than 10 µM. The pIC50 (PBLUC_HILL_SLOPE 1.46, PBLUC_R_SQUARED 0.613, read-out: LUCIFERASE INFECTION ASSAY - IC50) was 5.32.
As for `C=CCc1c(C)nc2c(-c3ccccc3)cnn2c1N1CCN(CCO)CC1`, the IC90 is more than 8.74 µM. Further, the pIC50 (PBLUC_HILL_SLOPE 1.51, PBLUC_R_SQUARED 0.304, read-out: LUCIFERASE INFECTION ASSAY - IC50) was 5.53.
As to `Cc1cccc(C)c1Nc1nnc(C(O)c2ccc(F)c(Cl)c2)s1` (configuration not stated), the IC90 is more than 10 µM. Under “PBLUC_HILL_SLOPE 1.46, PBLUC_R_SQUARED 0.342, read-out: LUCIFERASE INFECTION ASSAY - IC50”, the pIC50 was 5.53.
For the compound `CN(C)C(CNC(=O)c1ccc(COc2ccccc2)cc1)Cc1ccccc1` (configuration not stated), the IC90 was more than 10 µM. Under “PBLUC_HILL_SLOPE 1.49, PBLUC_R_SQUARED 0.218, read-out: LUCIFERASE INFECTION ASSAY - IC50”, the pIC50 was 5.12.
Regarding `CC(NC(=O)c1cc(-c2ccc3c(c2)OCCO3)nc2c1cnn2C(C)C)c1nc2ccccc2[nH]1` (configuration not stated), the IC90 is more than 10 µM. In addition, the pIC50 (PBLUC_HILL_SLOPE 1.49, PBLUC_R_SQUARED 0.0633, read-out: LUCIFERASE INFECTION ASSAY - IC50) is less than 5.00.
With `Cc1cccc(C)c1N1C(=O)CC(N2CCCC(c3nc4ccccc4s3)C2)C1=O` (configuration not stated), the 90% effect concentration (IC90) amounted to 9.05 µM. Moreover, the pIC50 (PBLUC_HILL_SLOPE 1.45, PBLUC_R_SQUARED 0.739, read-out: LUCIFERASE INFECTION ASSAY - IC50) was 5.70.
For `N#CCCN(C(=O)CSc1nc2cc(S(=O)(=O)Nc3ccc(Cl)cc3)ccc2o1)c1ccccc1`, the concentration for an effect of 90% (IC90) amounted to 7.89 µM. The pIC50 (PBLUC_HILL_SLOPE 1.44, PBLUC_R_SQUARED 0.751, read-out: LUCIFERASE INFECTION ASSAY - IC50) was 5.76.
Regarding `Cc1c(C)n(CCN(C)C)c2ncn3nc(-c4ccccc4O)nc3c12`, the 90% effect concentration (IC90) was more than 9.42 µM. Also, where the note is “PBLUC_HILL_SLOPE 1.46, PBLUC_R_SQUARED 0.808, read-out: LUCIFERASE INFECTION ASSAY - IC50”, the pIC50 is 5.66.
Take `CCOC(=O)c1c(C)nn(-c2ccc(N3C(=O)C=CC3=O)cc2)c1C`: the concentration for an effect of 90% (IC90) is more than 9.72 µM. In addition, the pIC50 (PBLUC_HILL_SLOPE 1.49, PBLUC_R_SQUARED 0.186, read-out: LUCIFERASE INFECTION ASSAY - IC50) was 5.16.
With `O=S(=O)(Oc1cncc(Cl)c1)c1cc(Cl)cc(Cl)c1`, the IC90 is more than 9.75 µM. The pIC50 (PBLUC_HILL_SLOPE 1.51, PBLUC_R_SQUARED 0.362, read-out: LUCIFERASE INFECTION ASSAY - IC50) is 5.05.
As for `CC1(C)CC(=O)C2Sc3ccccc3N=C2C1` (configuration not stated), the IC90 is more than 13.5 µM. For the same compound, the pIC50 (PBLUC_HILL_SLOPE 1.5, PBLUC_R_SQUARED 0.224, read-out: LUCIFERASE INFECTION ASSAY - IC50) was 4.97.
In the case of `CCC(C)(C)NS(=O)(=O)c1ccc(C(C)(C)C)cc1`, the IC90 is more than 10 µM. Further, where the note is “PBLUC_HILL_SLOPE 1.46, PBLUC_R_SQUARED 0.189, read-out: LUCIFERASE INFECTION ASSAY - IC50”, the pIC50 was less than 5.00.
In the case of `Fc1cccc(-c2nccc3n[nH]c(-c4cccc(OC(F)(F)F)c4)c23)c1`, the IC90 was more than 10 µM. For the same compound, the pIC50 (PBLUC_HILL_SLOPE 1.45, PBLUC_R_SQUARED 0.246, read-out: LUCIFERASE INFECTION ASSAY - IC50) is 5.27.
For `CC(c1cccc(NC(=O)c2ccccc2)c1)N(C)c1ccc(C#N)cn1` (configuration not stated), the IC90 was more than 10 µM. The pIC50 (PBLUC_HILL_SLOPE 1.47, PBLUC_R_SQUARED 0.583, read-out: LUCIFERASE INFECTION ASSAY - IC50) was 5.52.
In the case of `CC(C)c1ccc(OCC(=O)NC2CCCCCCC2)cc1`, the IC90 is more than 10.9 µM. Also, the pIC50 (PBLUC_HILL_SLOPE 1.5, PBLUC_R_SQUARED 0.0788, read-out: LUCIFERASE INFECTION ASSAY - IC50) is less than 4.96.
As for `Cc1cc(C)c(S(=O)(=O)N2CCC(C(=O)N3CCn4c3nc3ccccc34)CC2)c(C)c1`, the IC90 was more than 10 µM. Moreover, the pIC50 (PBLUC_HILL_SLOPE 1.44, PBLUC_R_SQUARED 0.637, read-out: LUCIFERASE INFECTION ASSAY - IC50) is 5.46.
In the case of `O=C(Nc1nnc(-c2ccco2)s1)c1csc(COc2ccc(Cl)cc2)n1`, the concentration for an effect of 90% (IC90) is more than 10 µM. Also, the pIC50 (PBLUC_HILL_SLOPE 1.45, PBLUC_R_SQUARED 0.301, read-out: LUCIFERASE INFECTION ASSAY - IC50) is 5.37.
Consider `COc1ccc(C2Sc3ccccc3N=C3C2=C(O)c2ccccc23)cc1` (configuration not stated), for which the IC90 was 1.84 µM. The pIC50 (PBLUC_HILL_SLOPE 1.48, PBLUC_R_SQUARED 0.746, read-out: LUCIFERASE INFECTION ASSAY - IC50) was 6.38.

Usually pIC50 stands for the IC50 on a negative log10 scale, so that one unit is a factor of ten. The IC90 is the concentration at which the effect reaches the 90% level.

Values taken from ChEMBL document CHEMBL4483862, “Open-source discovery of chemical leads for next-generation chemoprotective antimalarials” (2018).
